Assay results taken from patent US8476253B2, “Amide derivative” (Daiichi Sankyo Company, Limited, priority 2009, dated 2013).
Structures can show the parent of a compound that is named as a salt. Where two headings read alike, the source gives them in different places.

Tests used:
human M3 receptor = biological target: T1, human M3 receptor (Homo sapiens, UniProt P20309); experiment: Test for binding to human M3 receptor
T1 construct: expressed in transfected cells; host or cells: CHO cells
Outline: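 CHO-cell crude membranes expressing human M3 were incubated with [N-methyl-3H]-(−)-scopolamine methyl chloride in 50 mM Tris-HCl, 0.5 mM EDTA, pH 7.4, for 60 min at room temperature. Bound ligand was collected on PEI-pretreated glass-fibre filters and counted by liquid scintillation. Ki was calculated from IC50 and the radioligand Kd.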

human NK2 receptor = biological target: T2, human NK2 receptor (Homo sapiens, UniProt P21452); experiment: Test for binding to human NK2 receptor
T2 construct: expressed in transfected cells; host or cells: COS cells
T2 sequence (P21452 1-398): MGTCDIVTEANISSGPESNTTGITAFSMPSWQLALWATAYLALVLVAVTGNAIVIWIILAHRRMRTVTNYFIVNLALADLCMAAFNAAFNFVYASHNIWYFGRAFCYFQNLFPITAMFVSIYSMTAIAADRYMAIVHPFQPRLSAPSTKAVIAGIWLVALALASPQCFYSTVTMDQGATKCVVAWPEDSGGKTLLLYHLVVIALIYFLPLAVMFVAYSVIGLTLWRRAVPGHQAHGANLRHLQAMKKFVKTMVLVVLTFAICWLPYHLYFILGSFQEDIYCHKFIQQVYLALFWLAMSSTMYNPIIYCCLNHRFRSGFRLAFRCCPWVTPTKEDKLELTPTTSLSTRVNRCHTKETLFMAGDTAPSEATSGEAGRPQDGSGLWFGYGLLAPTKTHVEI
Outline: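 Radioligand binding with [^3H]SR 48968 on cryopreserved COS cells expressing human NK2 receptor (5.0×10^5 cells/mL), in 50 mM Tris-HCl pH 7.4 with BSA, MnCl2 and protease inhibitors. Bound label collected on PEI-treated GF/B filters, counted by liquid scintillation; Ki derived from IC50 and radioligand Kd.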

neurokinin NK2 receptor = biological target: T3, neurokinin NK2 receptor (Cavia porcellus, UniProt Q64077); experiment: Effect of suppressing neurokinin A-induced airway contraction (in vivo, intratracheal administration); design: species or system guinea pig; settings: guinea pigs, intratracheal administration 60 minutes before 4 μg/kg i.v. NKA, AUC of increase in airway pressure over 10 minutes; for ED50: guinea pig, read-out: ID50 (the source's name)
T3 construct: Using healthy guinea pigs (body weight, 350 to 550 g; Hartley male guinea pigs); from tissue; host or cells: live anaesthetised Hartley male guinea pigs (airway, in vivo)
T3 sequence (Q64077 1-402): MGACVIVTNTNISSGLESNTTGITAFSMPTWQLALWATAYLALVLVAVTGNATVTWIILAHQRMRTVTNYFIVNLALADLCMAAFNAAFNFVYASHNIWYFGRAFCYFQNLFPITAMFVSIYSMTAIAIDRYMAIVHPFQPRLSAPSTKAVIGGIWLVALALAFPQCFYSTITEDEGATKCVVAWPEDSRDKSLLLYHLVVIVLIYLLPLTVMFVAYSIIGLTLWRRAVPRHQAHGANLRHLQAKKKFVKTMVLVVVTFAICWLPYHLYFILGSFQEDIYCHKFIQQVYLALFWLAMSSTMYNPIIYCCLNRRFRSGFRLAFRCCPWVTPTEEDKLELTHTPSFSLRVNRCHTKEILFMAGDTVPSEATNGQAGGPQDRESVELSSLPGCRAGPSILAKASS
Description: Using healthy guinea pigs (body weight, 350 to 550 g; Hartley male guinea pigs), the effect of suppressing airway contraction induced by neurokinin A (NKA), which is an NK2 receptor agonist, was examined by a modified method of Konzett-Roessler (Naunyn-Schmiedebergs Arch. Exp. Pathol. Pharmakol. 195, 71 [1940]) using airway pressure as an indicator.
A tracheal cannula and a venous cannula were attached to a guinea pig anesthetized with pentobarbital (50 mg/mL solution, 0.40 to 0.50 mL/body, subcutaneous administration). An arterial cannula filled with heparin-containing physiological saline (100 U/mL) was further attached, and blood pressure and heart rate were monitored via an amplifier and an instantaneous heart rate meter. Subsequently, gallamine (20 mg/body, intravenous administration) was administered to terminate spontaneous breathing, and 10 mL/kg of positive pressure breathing (Ugo-Basile Biological Research Apparatus, Cat. No. 7025) was rapidly performed at 60 times/min. The airway pressure during artificial breathing was detected with a pressure transducer (TP-200T or TP-400T; Nihon Kohden Corporation) attached to a side branch of the tracheal cannula, amplified (AP-601G; Nihon Kohden Corporation), and recorded in a recorder. After the airway pressure, blood pressure, and heart rate were stabilized, 4 μg/kg of NKA was intravenously administered from the venous cannula to induce airway contraction, and the airway pressure was measured for the following 10 minutes.
The test substance was dissolved in a 5% glucose solution, and a 0.5 mL/kg solution was intratracheally administered with an intratracheal administration apparatus (model 1A-1B; Penn-Century, Inc.) 60 minutes before stimulation with NKA.
The AUC of increase in the airway pressure over 10 minutes after administration of NKA was determined as the intensity of NKA-induced airway contraction and calculated as an ID50 value from the inhibition rate based on the value of the control group (5% glucose solution intratracheal administration group).

[1] = CHO cells expressing human M3 receptor, [N-methyl-3H]-(-)-Scopolamine methyl chloride 0.5 nM, Ki from IC50 and Kd, read-out: Ki
[2] = COS cells expressing human NK2 receptor, [3H]SR 48968 1 nM, Ki from IC50 and Kd, read-out: Ki

T1 sequence (P20309 whole entry): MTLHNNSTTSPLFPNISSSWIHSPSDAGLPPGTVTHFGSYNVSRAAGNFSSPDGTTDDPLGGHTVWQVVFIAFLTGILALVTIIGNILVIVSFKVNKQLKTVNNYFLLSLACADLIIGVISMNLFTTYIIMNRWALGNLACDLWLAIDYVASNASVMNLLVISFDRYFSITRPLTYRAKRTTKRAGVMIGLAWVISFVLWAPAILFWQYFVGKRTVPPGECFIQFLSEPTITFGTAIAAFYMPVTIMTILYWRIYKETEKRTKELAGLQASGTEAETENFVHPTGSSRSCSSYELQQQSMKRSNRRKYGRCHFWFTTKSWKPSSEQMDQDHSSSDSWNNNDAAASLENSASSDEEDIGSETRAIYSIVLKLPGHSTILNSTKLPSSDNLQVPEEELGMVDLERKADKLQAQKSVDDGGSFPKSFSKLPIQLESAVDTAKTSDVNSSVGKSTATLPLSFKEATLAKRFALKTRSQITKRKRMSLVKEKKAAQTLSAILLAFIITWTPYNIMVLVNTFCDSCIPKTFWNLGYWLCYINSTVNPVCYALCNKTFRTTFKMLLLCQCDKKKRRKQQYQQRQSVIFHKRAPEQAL

Row | Structure (SMILES) | Ki (human M3 receptor; [1]) | Ki (human NK2 receptor; [2]) | ED50 (neurokinin NK2 receptor) | Ki (human M3 receptor) | Ki (human NK2 receptor) | ID50 (neurokinin NK2 receptor)
1 | CN(CCN1CCC(OC(=O)Nc2ccccc2-c2ccccc2)CC1)C(=O)CCCCCNCc1ccc(C(=O)N(C)CCCN(C)C(=O)CO[C@H]2Cc3ccccc3C23CCN(CC[C@@]2(c4ccc(F)cc4)CN(C(=O)c4cc(C(F)(F)F)cc(C(F)(F)F)c4)CO2)CC3)s1 [Example 1, 1-{2-[{6-[({5-[{3-[({[(2S)-1′-{2-[(5R)-3-[3,5-Bis(trifluoromethyl)benzoyl]-5-(4-fluorophenyl)-1,3-oxazolidin-5-yl]ethyl}-2,3-dihydrospiro[indene-1,4′-piperidin]-2-yl]oxy}acetyl)(methyl)amino]propyl}(methyl)carbamoyl]-2-thienyl}methyl)amino]hexanoyl}(methyl)amino]ethyl}piperidin-4-yl biphenyl-2-ylcarbamate] | 1.4 nM | 0.57 nM | 0.0049 mg/kg |  |  | 
2 | CN(CCN1CCC(OC(=O)Nc2ccccc2-c2ccccc2)CC1)C(=O)CCCCCNc1ccc(C(=O)N(C)CCCN(C)C(=O)CO[C@H]2Cc3ccccc3C23CCN(CC[C@@]2(c4ccc(F)cc4)CN(C(=O)c4cc(C(F)(F)F)cc(C(F)(F)F)c4)CO2)CC3)nc1 [Example 9, 1-(2-{[6-({6-[{3-[({[(2S)-1′-{2-[(5R)-3-[3,5-Bis(trifluoromethyl)benzoyl]-5-(4-fluorophenyl)-1,3-oxazolidin-5-yl]ethyl}-2,3-dihydrospiro[indene-1,4′-piperidin]-2-yl]oxy}acetyl)(methyl)amino]propyl}(methyl)carbamoyl]pyridin-3-yl}amino)hexanoyl](methyl)amino}ethyl)piperidin-4-yl biphenyl-2-ylcarbamate] | 1.3 nM | 0.66 nM | 0.0374 mg/kg |  |  | 
3 | CN(CCN1CCC(OC(=O)Nc2ccccc2-c2ccccc2)CC1)C(=O)CCCCCNc1ncc(C(=O)N(C)CCCN(C)C(=O)CO[C@H]2Cc3ccccc3C23CCN(CC[C@@]2(c4ccc(F)cc4)CN(C(=O)c4cc(C(F)(F)F)cc(C(F)(F)F)c4)CO2)CC3)cn1 [Example 14, 1-(2-{[6-({5-[{3-[({[(2S)-1′-{2-[(5R)-3-[3,5-Bis(trifluoromethyl)benzoyl]-5-(4-fluorophenyl)-1,3-oxazolidin-5-yl]ethyl}-2,3-dihydrospiro[indene-1,4′-piperidin]-2-yl]oxy}acetyl)(methyl)amino]propyl}(methyl)carbamoyl]pyrimidin-2-yl}amino)hexanoyl](methyl)amino}ethyl)piperidin-4-yl biphenyl-2-ylcarbamate trihydrochloride] |  |  | 0.0284 mg/kg | 0.93 nM | 0.67 nM | 
4 | CN(CCN1CCC(OC(=O)Nc2ccccc2-c2ccccc2)CC1)C(=O)CCCCCNc1ccc(C(=O)N(C)CCN(C)C(=O)CO[C@H]2Cc3ccccc3C23CCN(CC[C@@]2(c4ccc(F)cc4)CN(C(=O)c4cc(C(F)(F)F)cc(C(F)(F)F)c4)CO2)CC3)cc1 [Example 15, 1-(2-{[6-({4-[{2-[({[(2S)-1-{2-[(5R)-3-[3,5-Bis(trifluoromethyl)benzoyl]-5-(4-fluorophenyl)-1,3-oxazolidin-5-yl]ethyl}-2,3-dihydrospiro[indene-1,4′-piperidin]-2-yl]oxy}acetyl)(methyl)amino]ethyl}(methyl)carbamoyl]phenyl}amino)hexanoyl](methyl)amino}ethyl)piperidin-4-yl biphenyl-2-ylcarbamate] | 1.2 nM | 0.91 nM |  |  |  | 0.0377 mg/kg
5 | CN(CCN1CCC(OC(=O)Nc2ccccc2-c2ccccc2)CC1)C(=O)CCCCCNc1ccc(C(=O)N(C)CCN(C)C(=O)CO[C@H]2Cc3ccccc3C23CCN(CC[C@@]2(c4ccc(F)cc4)CN(C(=O)c4cc(C(F)(F)F)cc(C(F)(F)F)c4)CO2)CC3)cc1 [Example 16, 1-(2-{[6-({4-[{2-[({[(2S)-1′-{2-[(5R)-3-[3,5-Bis(trifluoromethyl)benzoyl]-5-(4-fluorophenyl)-1,3-oxazolidin-5-yl]ethyl}-2,3-dihydrospiro[indene-1,4′-piperidin]-2-yl]oxy}acetyl)(methyl)amino]ethyl}(methyl)carbamoyl]phenyl}amino)hexanoyl](methyl)amino}ethyl)piperidin-4-yl biphenyl-2-ylcarbamate trihydrochloride] |  |  | 0.0286 mg/kg | 2.4 nM | 0.49 nM | 
6 | Cc1cc(NCCCCCC(=O)N(C)CCN2CCC(OC(=O)Nc3ccccc3-c3ccccc3)CC2)ccc1C(=O)N(C)CCCN(C)C(=O)CO[C@H]1Cc2ccccc2C12CCN(CC[C@@]1(c3ccc(F)cc3)CN(C(=O)c3cc(C(F)(F)F)cc(C(F)(F)F)c3)CO1)CC2 [Example 18, 1-(2-{[6-({4-[{3-[({[(2S)-1′-{2-[(5R)-3-[3,5-Bis(trifluoromethyl)benzoyl]-5-(4-fluorophenyl)-1,3-oxazolidin-5-yl]ethyl}-2,3-dihydrospiro[indene-1,4′-piperidin]-2-yl]oxy}acetyl)(methyl)amino]propyl}(methyl)carbamoyl]-3-methylphenyl}amino)hexanoyl](methyl)amino}ethyl)piperidin-4-yl biphenyl-2-ylcarbamate trihydrochloride] |  |  | 0.0453 mg/kg | 1.2 nM | 0.42 nM | 
7 | CN(CCN1CCC(OC(=O)Nc2ccccc2-c2ccccc2)CC1)C(=O)CCCCCNc1ccc(C(=O)N(CCCN(C)C(=O)CO[C@H]2Cc3ccccc3C23CCN(CC[C@@]2(c4ccc(F)cc4)CN(C(=O)c4cc(C(F)(F)F)cc(C(F)(F)F)c4)CO2)CC3)C2CC2)cc1 [Example 25, 1-(2-{[6-({4-[{3-[({[(2S)-1′-{2-[(5R)-3-[3,5-Bis(trifluoromethyl)benzoyl]-5-(4-fluorophenyl)-1,3-oxazolidin-5-yl]ethyl}-2,3-dihydrospiro[indene-1,4′-piperidin]-2-yl]oxy}acetyl)(methyl)amino]propyl}(cyclopropyl)carbamoyl]phenyl}amino)hexanoyl](methyl)amino}ethyl)piperidin-4-yl biphenyl-2-ylcarbamate trihydrochloride] |  |  | 0.0727 mg/kg | 1.4 nM | 0.77 nM | 
8 | CN(CCN1CCC(OC(=O)Nc2ccccc2-c2ccccc2)CC1)C(=O)COCCCNc1ccc(C(=O)N(C)CCCN(C)C(=O)CO[C@H]2Cc3ccccc3C23CCN(CC[C@@]2(c4ccc(F)cc4)CN(C(=O)c4cc(C(F)(F)F)cc(C(F)(F)F)c4)CO2)CC3)cc1 [Example 27, 1-{2-[{[3-({4-[{3-[({[(2S)-1′-{2-[(5R)-3-[3,5-Bis(trifluoromethyl)benzoyl]-5-(4-fluorophenyl)-1,3-oxazolidin-5-yl]ethyl}-2,3-dihydrospiro[indene-1,4′-piperidin]-2-yl]oxy}acetyl)(methyl)amino]propyl}(methyl)carbamoyl]phenyl}amino)propoxy]acetyl}(methyl)amino]ethyl}piperidin-4-yl biphenyl-2-ylcarbamate trihydrochloride] |  |  | 0.0135 mg/kg | 1.4 nM | 0.76 nM | 
